Experimental findings from patent publication US11680062B2, “3,4-methylenedioxyphenylimidazolylethanonexime ether derivative, preparation method and use thereof, and drug for the treatment of Alzheimer's disease” (NORTHWEST A&F UNIVERSITY, priority 2021, dated 2023) are described below.

Like-named read-outs stand apart in the source and are kept apart here.

The test system of data set [1] is BV-2 microglia. The conditions noted are these: mouse.
In data set [2] the test system is NO production in lipopolysaccharide-induced BV-2 microglia. Nature of the data set: Inhibition of NO production in lipopolysaccharide-induced BV-2 microglia. The data set is classed as cell-based. The conditions noted are these: Mus musculus.
Data set [3] has as its system BV-2 microglia. Nature of the data set: Cell viability corresponding to the NO production test.
Data set [4] deals with 5×FAD transgenic mice. Nature of the data set: Y maze test (working memory ability). The conditions noted are these: 5×FAD mice, 4 weeks. The data set is classed as in vivo. The method, then:
(§1) The AD model mice used are 5×FAD transgenic mice, purchased from the Jackson Laboratory (JAX), USA. The transgenic mice have Swedish (K670N/M671L), Florida (I716V) and London (V717I) mutations in amyloid precursor protein (APP), and M146L and L286V mutations in PSEN1.
(§2) All mice were fed and watered ad libitum at 22±2° C. with a humidity of 50±10% and a 12 h light/dark cycle until 6 months old, then the experiment was started. All operations were in accordance with the guidelines of the National Health Administration and the guidelines for the use of laboratory animals. […]
The Y maze test is a commonly used test method to assess working memory ability. […] The mice were placed in the center of the Y maze to explore the 3 arms freely for 5 min, all movements were recorded by a camera, and the spontaneous alternation ratio was calculated according to the situation of entering onto each arm.

Data set [5] concerns 5×FAD transgenic mice. Nature of the data set: Elevated plus maze test (anxiety behavior). The data set is classed as in vivo. The conditions noted are these: 5×FAD mice, 4 weeks. The method, then: as §1, §2
The elevated plus maze is a recognized behavior test used for anxiety behavior assessment. […] The times of entries onto the open arm and the total times were recorded, and the anxiety behavior of the animal was evaluated by the proportion of entries onto the open arm.

The subject of data set [6] is 5×FAD transgenic mice. Nature of the data set: Barnes maze test (learning and memory ability). The data set is classed as in vivo. The conditions noted are these: 5×FAD mice, 4 weeks. As to the method: as §1, §2
The Barnes maze test is widely used to assess spatial learning and memory abilities. […] When the cylinder was removed, light was given to allow the mice to explore the platform and find the escape box within 180 s, the time when the mice entered the escape box was recorded by a camera-based EthoVision system (Noldus) and recorded as the escape latency. […] The successful escape latency of mice was recorded and analyzed.

The subject of data set [7] is 5×FAD transgenic mice. Nature of the data set: Marble burying test (anxiety behavior). The data set is classed as in vivo. The conditions noted are these: 5×FAD mice, high dose 30 mg/kg/day intraperitoneal, 4 weeks. The method, then:
as §1, §2
Each mouse was placed in a cage (28×18×12 cm) containing 20 clean marbles (1.5 cm in diameter), evenly distributed on the surface of clean wood chips (4 cm in depth). After 30 min, each mouse was removed from the cage and the number of marbles buried at least two-thirds was counted.

[8] abbreviates: read-out: EC50 (inhibition of NO production).
[9] abbreviates: read-out: EC50 (inhibitory effect on the NO production).
The mark [10] stands for this setting: high dose 30 mg/kg/day intraperitoneal.
Setting [11] is: low dose 15 mg/kg/day intraperitoneal.

In turn, `C(=C\c1ccccc1)/CO/N=C(\Cn1ccnc1)c1ccc2c(c1)OCO2` [I-10] showed a cell viability with BV-2 microglia [1] of 96.3%. The EC50 in data set [2] (setting [8]) and in data set [2] (setting [9]) was above 20 µM in each case.

In the data set with BV-2 microglia [1], `N#Cc1ccc(CO/N=C(\Cn2ccnc2)c2ccc3c(c2)OCO3)cc1` [I-9] registered a cell viability of 91.6%. For the same molecule, the EC50 in data set [2] (setting [9]) stood at 4.24 ± 1.02 µM.

In the case of `O=c1c(O)c(-c2ccc(O)c(O)c2)oc2cc(O)cc(O)c12` [quercetin, reference compound], the EC50 in data set [2] (setting [8]) was determined as 9.56 µM; in data set [2] (setting [9]), 9.56 ± 1.62 µM. The same molecule showed a cell viability in the data set on BV-2 microglia [3] of 94.3%.

With `c1ccc(CO/N=C(\Cn2ccnc2)c2ccc3c(c2)OCO3)cc1` [I-6], the melting point is 186.4 to 187.9 °C. In the data set on BV-2 microglia [1], this molecule registered a cell viability of 97.8%. Also, the EC50 in data set [2] (setting [9]) was 4.43 ± 0.43 µM.

For the molecule `CC(C)=CCO/N=C(\Cn1ccnc1)c1ccc2c(c1)OCO2` [I-5], the melting point lay in the range of 154.3 to 154.9 °C. Further, the cell viability in the data set on BV-2 microglia [1] is 93.3%. Besides, the EC50 in data set [2] (setting [9]) amounted to 2.76 ± 0.34 µM.

Turning to `C#CCO/N=C(\Cn1ccnc1)c1ccc2c(c1)OCO2` [I-1], the cell viability in the data set with BV-2 microglia [1] is reported as 92.5%. In addition, the spontaneous alternation ratio entry in the data set on 5×FAD transgenic mice [4] (setting [10]) and with 5×FAD transgenic mice [4] (setting [11]) was “significantly increased” each time. Moreover, in data set [2] (setting [9]), the EC50 is 2.07 ± 0.56 µM. In addition, the “proportion of entries onto the open arm” value in the data set on 5×FAD transgenic mice [5] (setting [10]) and in the data set with 5×FAD transgenic mice [5] (setting [11]) was “significantly improved” throughout. Further, the “successful escape latency vs 5×FAD-Vehicle group” value is “significantly reduced” with 5×FAD transgenic mice [6] (high dose 30 mg/kg/day intraperitoneal, day 3 and day 4); “significantly reduced” with 5×FAD transgenic mice [6] (low dose 15 mg/kg/day intraperitoneal, day 4). Besides, in the data set on 5×FAD transgenic mice [7], the “number of marbles buried” value is listed as “significantly reduced”.

For `Clc1ccc(CO/N=C(\Cn2ccnc2)c2ccc(Cl)cc2Cl)c(Cl)c1` [oxiconazole], the cell viability in the data set on BV-2 microglia [3] was found to be 96.2%.

`FC(F)(F)c1ccccc1CO/N=C(\Cn1ccnc1)c1ccc2c(c1)OCO2` [I-8] returned a melting point of 156.3 to 157.5 °C. In the data set on BV-2 microglia [1], this molecule gave a cell viability of 95.4%. The EC50 in data set [2] (setting [9]) was 2.53 ± 0.47 µM.

`C=CCO/N=C(\Cn1ccnc1)c1ccc2c(c1)OCO2` [I-3]: the cell viability with BV-2 microglia [1] worked out at 97.8%. Also, the EC50 in data set [2] (setting [9]) was 3.42 ± 0.64 µM.

As for `FC(F)(F)c1ccc(CO/N=C(\Cn2ccnc2)c2ccc3c(c2)OCO3)cc1` [I-7], the melting point was in the range of 121.8 to 122.7 °C. This molecule also showed a cell viability with BV-2 microglia [1] of 92.8%. Also, the EC50 in data set [2] (setting [9]) was determined as 2.37 ± 0.17 µM.

Usually cell viability stands for a read-out of living cells in per cent, often relative to untreated cells. Higher therefore signals less harm to the cells. Usually EC50 stands for the concentration at which the effect is half-maximal. One may read the melting point as the temperature of the solid-liquid transition.
